For experiment [1], the target named is T1, vanilloid receptor 1 (VR1/TRPV1) of the rat species (Rattus norvegicus, UniProt O35433).
T1 construct: The spinal column is removed from beheaded rats; from tissue; host or cells: primary cells from rat dorsal root ganglia (DRGs)
The experiment in a line: Functional study on vanilloid receptor 1, FLIPR Ca2+ assay in rat dorsal root ganglia cells. The experiment is classed as cell-based. The following applies: for inhibition at 10 µM / activation at 10 µM / VR1 (rat) (% inhibition compared to 10 μM CP) / VR1 (rat) (% stimulation compared to 10 μM CP): test compound 10 μM; for inhibition at 10 µM / VR1 (rat) (% inhibition compared to 10 μM CP): 5 min incubation, then 100 nM capsaicin, relative to maximum inhibition with 10 μM capsaicin; for inhibition at 10 µM: read-out: VR1 (rat) (% inhibition compared to 10 μM CP); for activation at 10 µM / VR1 (rat) (% stimulation compared to 10 μM CP): Ca2+ signal relative to 10 μM capsaicin (CP); for activation at 10 µM: read-out: VR1 (rat) (% stimulation compared to 10 μM CP). The protocol:
The agonistic or antagonistic action of the substances to be studied on the vanilloid receptor 1 (VR1/TRPV1) of the rat species can be determined with the following assay. In this assay, the Ca^2+ current through the receptor channel is quantified with the aid of a Ca^2+-sensitive dye (Fluo-4 type, Molecular Probes Europe BV, Leiden the Netherlands) in a fluorescent imaging plate reader (FLIPR, Molecular Devices, Sunnyvale, USA).
Complete medium: 50 ml HAMS F12 Nutrient Mixture (Gibco Invitrogen GmbH, Karlsruhe, Germany) with 10% by volume of FCS (fetal calf serum, Gibco Invitrogen GmbH, Karlsruhe, Germany, heat-inactivated);
2 mM L-glutamine (Sigma, Munich, Germany);
1% by weight of AA solution (antibiotic/antimycotic solution, PAA, Pasching, Austria) and 25 ng/ml of NGF medium (2.5 S, Gibco Invitrogen GmbH, Karlsruhe, Germany)
Cell culture plate: poly-D-lysine-coated, black 96-hole plates with a clear bottom (96 well black/clear plate, BD Biosciences, Heidelberg, Germany) are additionally coated with laminin (Gibco Invitrogen GmbH, Karlsruhe, Germany) by diluting laminin to a concentration of 100 μg/ml with PBS (Ca—Mg-free PBS, Gibco Invitrogen GmbH, Karlsruhe, Germany). Aliquots having a concentration of 100 μg/ml of laminin are withdrawn and stored at −20° C. The aliquots are diluted with PBS in a ratio of 1:10 to 10 μg/ml of laminin and in each case 50 μl of the solution are pipetted into a well of the cell culture plate. The cell culture plates are incubated at 37° C. for at least two hours, the supernatant solution is removed by suction and the wells are each washed twice with PBS. The coated cell culture plates are stored with supernatant PBS which is not removed until directly before the application of the cells.
The spinal column is removed from beheaded rats and placed directly into cold HBSS buffer (Hank's buffered saline solution, Gibco Invitrogen GmbH, Karlsruhe, Germany), i.e. placed in an ice bath, which has been admixed with 1% by volume of an AA solution (antibiotic/antimycotic solution, PAA, Pasching, Austria). The spinal column is severed longitudinally and removed from the spinal canal together with fasciae. Subsequently, the dorsal root ganglia (DRGs) are removed and in turn stored in cold HBSS buffer admixed with 1% by volume of an AA solution. The DRGs freed completely of blood residues and spinal nerves are in each case transferred to 500 μl of cold type 2 collagenase (PAA, Pasching, Austria) and incubated at 37° C. for 35 minutes. […] After complete incubation, the enzyme solution is cautiously pipetted off and the remaining DRGs are each suspended with 500 μl of complete medium.
The DRGs are each suspended repeatedly, drawn through cannulas No. 1, No. 12 and No. 16 by means of a syringe and transferred to 50 ml Falcon tubes which are made up to 15 ml with complete medium. The contents of each Falcon tube are in each case filtered through a 70 μm Falcon filter insert and centrifuged at 1200 revolutions and room temperature for 10 minutes. The resulting pellet is in each case taken up in 250 μl of complete medium and the cell count is determined.
The number of cells in the suspension is adjusted to 3 times 10^5 per ml and in each case 150 μl of this suspension are added to one well of the cell culture plates coated as described above.
Subsequently, the cells are laden with 2 μM Fluo-4 and 0.01% by volume of Pluronic F127 (Molecular Probes Europe BV, Leiden, the Netherlands) in HBSS buffer (Hank's buffered saline solution, Gibco Invitrogen GmbH, Karlsruhe, Germany) at 37° C. for 30 min, washed 3× with HBSS buffer and, after a further incubation of 15 minutes, used in the FLIPR assay at room temperature for Ca^2+ measurement. The Ca^2+-dependent fluorescence is measured before and after addition of substances (λex=488 nm, λem=540 nm). The quantification is effected by the measurement of the highest fluorescence intensity (FC, fluorescence counts) over the time.

The target of another experiment is T2, VR1 (human) (Homo sapiens, UniProt Q8NER1).
T2 construct: expressed in transfected cells; host or cells: CHO K1 cells (ECACC), stably transfected
T2 sequence (Q8NER1 whole entry): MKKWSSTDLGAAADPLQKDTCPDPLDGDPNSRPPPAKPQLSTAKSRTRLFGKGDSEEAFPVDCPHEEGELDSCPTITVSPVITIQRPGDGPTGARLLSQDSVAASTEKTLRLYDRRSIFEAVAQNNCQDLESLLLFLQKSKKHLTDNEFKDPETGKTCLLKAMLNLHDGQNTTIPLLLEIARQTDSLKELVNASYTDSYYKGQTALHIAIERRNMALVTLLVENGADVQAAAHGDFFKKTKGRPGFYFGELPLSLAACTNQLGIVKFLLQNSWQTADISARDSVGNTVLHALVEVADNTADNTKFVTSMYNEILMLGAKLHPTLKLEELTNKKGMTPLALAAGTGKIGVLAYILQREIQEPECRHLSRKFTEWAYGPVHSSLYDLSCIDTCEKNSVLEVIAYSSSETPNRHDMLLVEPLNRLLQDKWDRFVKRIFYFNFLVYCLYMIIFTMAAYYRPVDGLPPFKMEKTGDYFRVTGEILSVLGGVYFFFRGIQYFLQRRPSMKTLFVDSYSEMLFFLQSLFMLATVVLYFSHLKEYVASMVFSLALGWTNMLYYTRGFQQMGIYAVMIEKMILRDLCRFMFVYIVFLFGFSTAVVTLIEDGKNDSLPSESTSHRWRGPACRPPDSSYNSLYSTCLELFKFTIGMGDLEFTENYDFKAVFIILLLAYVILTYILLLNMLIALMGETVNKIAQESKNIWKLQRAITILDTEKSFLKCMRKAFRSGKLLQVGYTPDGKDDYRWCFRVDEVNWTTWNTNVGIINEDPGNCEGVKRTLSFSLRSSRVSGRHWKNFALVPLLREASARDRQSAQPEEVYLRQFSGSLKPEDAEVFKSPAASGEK
The experiment in a line: Functional study on vanilloid receptor (VR1), FLIPR Ca2+ assay in CHO K1 cells stably transfected with the VR1 gene. Particulars: for inhibition at 10 µM / activation at 10 µM: CHO-K1, test compound 10 μM; for inhibition at 10 µM / VR1 (human) (% inhibition compared to 10 μM CP): 5 min incubation, then 100 nM capsaicin, compared to 10 μM CP; for activation at 10 µM / VR1 (human) (% stimulation compared to 10 μM CP): Ca2+ signal relative to 10 μM capsaicin (CP); for activation at 10 µM: read-out: VR1 (human) (% stimulation compared to 10 μM CP); for VR1 (human) (% inhibition compared to 10 μM CP) / VR1 (human) (% stimulation compared to 10 μM CP): test compound 10 μM. The format is cell-based. From the text:
The agonistic or antagonistic action of the substances to be tested on vanilloid receptor (VR1) can also be determined with the assay which follows. In this assay, the Ca^2+ current through the channel is quantified with the aid of a Ca^2+-sensitive dye (Fluo-4 type, Molecular Probes, Europe BV, Leiden, the Netherlands) in a fluorescent imaging plate reader (FLIPR, Molecular Devices, Sunnyvale, USA).
Chinese hamster ovary cells (CHO K1 cells, European Collection of Cell Cultures (ECACC) Great Britain) are transfected stably with the VR1 gene. For functional studies, these cells are plated out onto poly-D-lysine-coated black 96-well plates with a clear bottom (BD Biosciences, Heidelberg, Germany) in a density of 25 000 cells/well. The cells are incubated overnight at 37° C. and 5% CO2 in a culture medium (Ham's Nutrient Mixture F12, 10% by volume of FCS (fetal calf serum), 18 μg/ml of L-proline). The next day, the cells are incubated with Fluo-4 (Fluo-4 2 μM, Pluronic F127 0.01% by volume, Molecular Probes in HBSS (Hank's buffered saline solution), Gibco Invitrogen GmbH, Karlsruhe, Germany) at 37° C. for 30 minutes. Subsequently, the plates are washed 3 times with HBSS buffer and, after a further incubation of 15 minutes at room temperature, used for Ca^2+ measurement in FLIPR. The Ca^2+-dependent fluorescence is measured before and after addition of the substances to be studied (wavelength λex=488 nm, λem=540 nm). The quantification is effected by measuring the highest fluorescence intensity (FC, fluorescence counts) over the time.
The FLIPR protocol consists of 2 substance additions. First, the substances to be tested (10 μM) are pipetted onto the cells and the Ca current is compared with the control (capsaicin 10 μM) (% activation based on the Ca^2+ signal after addition of 10 μM capsaicin). After incubation for 5 minutes, 100 nM capsaicin is applied and the current of Ca^2+ is likewise determined.

This note sets out measurements from patent publication US20090215758A1, “Use of 2,5-Disubstituted Thiazol-4-One Derivatives in Drugs” (Gruenenthal GmbH, priority 2005, published 2009).

Structures can show the parent of a compound that is named as a salt. Where only a bound is given, the exact number is not on record here.

Broadly, the inhibition is the share of the control response that was lost under treatment. By EC50 is commonly meant the concentration giving half of the maximal effect. A higher EC50 goes with lower potency in that assay.

T1 sequence (O35433 whole entry): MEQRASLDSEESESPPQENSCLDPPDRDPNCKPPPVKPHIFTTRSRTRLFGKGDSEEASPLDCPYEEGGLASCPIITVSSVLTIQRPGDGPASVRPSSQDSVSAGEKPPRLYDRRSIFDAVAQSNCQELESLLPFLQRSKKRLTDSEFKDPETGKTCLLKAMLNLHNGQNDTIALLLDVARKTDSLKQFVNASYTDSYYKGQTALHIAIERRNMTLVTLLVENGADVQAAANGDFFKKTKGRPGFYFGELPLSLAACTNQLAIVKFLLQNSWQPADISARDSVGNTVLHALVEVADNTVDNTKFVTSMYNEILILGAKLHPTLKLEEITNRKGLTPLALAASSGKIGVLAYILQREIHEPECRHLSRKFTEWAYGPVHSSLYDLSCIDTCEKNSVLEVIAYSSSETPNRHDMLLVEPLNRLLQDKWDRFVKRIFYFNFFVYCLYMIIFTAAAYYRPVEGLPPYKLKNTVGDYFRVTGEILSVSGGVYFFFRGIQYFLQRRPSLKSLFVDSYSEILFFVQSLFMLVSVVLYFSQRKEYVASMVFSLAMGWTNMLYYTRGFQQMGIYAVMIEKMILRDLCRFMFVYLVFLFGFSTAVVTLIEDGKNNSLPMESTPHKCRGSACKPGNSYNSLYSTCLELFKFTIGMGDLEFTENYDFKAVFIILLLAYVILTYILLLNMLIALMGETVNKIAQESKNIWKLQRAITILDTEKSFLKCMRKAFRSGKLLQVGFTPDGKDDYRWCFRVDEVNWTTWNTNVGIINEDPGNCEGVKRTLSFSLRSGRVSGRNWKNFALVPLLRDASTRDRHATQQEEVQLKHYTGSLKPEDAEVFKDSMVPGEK

On to `O=C1N=C(N2CCSCC2)SC1=Cc1cccc(C(=O)N2CCN(c3ncccc3Cl)CC2)c1` [Example 88, 5-{3-[4-(3-chloropyridin-2-yl)piperazine-1-carbonyl]benzylidene}-2-thiomorpholin-4-ylthiazol-4-one], for which the figures for the inhibition at 10 µM (in experiment [1]; at VR1 (human)) were 90.1% and 71.1%, respectively. Besides, the activation at 10 µM was 72.8% in experiment [1] and 61.4% on VR1 (human).

As for `O=C(NC1=NC(=O)C(=Cc2ccc(C(F)(F)F)cc2)S1)Nc1ccccc1C(F)(F)F` [Example 96, 1-[4-oxo-5-(4-trifluoromethylbenzylidene)-4,5-dihydrothiazol-2-yl]-3-(2-trifluoromethylphenyl)urea], in experiment [1], the inhibition at 10 µM amounted to 27% and the activation at 10 µM is 28.5%. For the same molecule, at VR1 (human), the inhibition at 10 µM turned out to be 54.6% and the activation at 10 µM turned out to be 5.03%.

Consider `CC1CN(C(=O)c2cccc(C=C3SC(N4CCSCC4)=NC3=O)c2)CCN1c1ncccc1Cl` (centres unmarked) [Example 110, 5-{3-[4-(3-chloropyridin-2-yl)-3-methylpiperazine-1-carbonyl]benzylidene}-2-thiomorpholin-4-ylthiazol-4-one], for which, in experiment [1], the inhibition at 10 µM came to 50.3% and the activation at 10 µM stood at 49.3%. On VR1 (human), the inhibition at 10 µM is 28.8% and the activation at 10 µM was found to be 1.02%.

Regarding `O=C1N=C(N2CCSCC2)SC1=Cc1cccc(C(=O)N2CCN(c3ncc(C(F)(F)F)cc3Cl)CC2)c1` [Example 113, 5-{3-[4-(3-chloro-5-trifluoromethylpyridin-2-yl)piperazine-1-carbonyl]-benzylidene}-2-thiomorpholin-4-ylthiazol-4-one], in experiment [1], the inhibition at 10 µM came to 97.4% and the activation at 10 µM is 136%. Further, on VR1 (human), the inhibition at 10 µM stood at 97.8% and the activation at 10 µM was 90.3%.

Consider `O=C1N=C(N2CCSCC2)SC1=Cc1cccc(C(=O)N2CCN(c3nsnc3Cl)CC2)c1` [Example 115, 5-{3-[4-(4-chloro-[1,2,5]thiadiazol-3-yl)piperazine-1-carbonyl]benzylidene}-2-thiomorpholin-4-ylthiazol-4-one], for which, in experiment [1], the inhibition at 10 µM is 95.8% and the activation at 10 µM was 128%. Further, at VR1 (human), 10 µM produced 66.2% inhibition and the activation at 10 µM came to 68.2%.

Take `CC(C)c1ccc(C=C2SC(N3CCOCC3)=NC2=O)cc1` [Example 135, 5-(4-isopropylbenzylidene)-2-morpholin-4-ylthiazol-4-one]: in experiment [1], the “VR1 (rat) (% inhibition compared to 10 μM CP)” value worked out at 87.60% and the “VR1 (rat) (% stimulation compared to 10 μM CP)” value is 79.68%. Further, on VR1 (human), the “VR1 (human) (% inhibition compared to 10 μM CP)” value is reported as 84.29% and the “VR1 (human) (% stimulation compared to 10 μM CP)” value was determined as 85.02%.

On to `CC(C)c1ccc(C=C2SC(N3CCSCC3)=NC2=O)cc1` [Example 136, 5-(4-isopropylbenzylidene)-2-thiomorpholin-4-ylthiazol-4-one], for which the inhibition at 10 µM in experiment [1] worked out at 96.9%; against VR1 (human), 86.7%. Further, the activation at 10 µM was 84% in experiment [1] and 114% on VR1 (human).

For `Cc1ccc(N2CCN(C3=NC(=O)C(=Cc4ccc(C(C)(C)C)cc4)S3)CC2)nn1` [Example 154, 5-(4-tert-butylbenzylidene)-2-[4-(6-methylpyridazin-3-yl)piperazin-1-yl]thiazol-4-one], the inhibition at 10 µM was 54.1% in experiment [1] and 34.2% on VR1 (human). Also, the activation at 10 µM came to 3.99% in experiment [1] and 6.56% on VR1 (human).

On to `Cc1ccc(N2CCN(C3=NC(=O)C(=CC=Cc4ccccc4)S3)CC2)nn1` [Example 161, 2-[4-(6-methylpyridazin-3-yl)piperazin-1-yl]-5-(3-phenylallylidene)thiazol-4-one], for which, in experiment [1], the inhibition at 10 µM turned out to be 17% and the activation at 10 µM came out at 2.5%. In addition, on VR1 (human), testing at 10 µM gave an inhibition of 47.2% and the activation at 10 µM is 2.43%.

In the case of `Br.Cc1ccc(C=C2SC(N3CCOCC3)=NC2=O)cc1` [Example 176, 5-(4-methylbenzylidene)-2-morpholin-4-ylthiazol-4-one hydrobromide], in experiment [1], the inhibition at 10 µM came out at 97.5% and the activation at 10 µM was determined as 44.7%. For the same molecule, at VR1 (human), the activation at 10 µM was 14.5% and the “VR1 (human) (% inhibition compared to 10 μM CP)” value came to 35.32%.

With `Br.CC(C)c1ccc(C=C2SC(N3CCOCC3)=NC2=O)cc1` [Example 179, 5-(4-isopropylbenzylidene)-2-morpholin-4-ylthiazol-4-one hydrobromide], in experiment [1], the “VR1 (rat) (% inhibition compared to 10 μM CP)” value is on record as 38.36% and the “VR1 (rat) (% stimulation compared to 10 μM CP)” value turned out to be 41.89%. At VR1 (human), the “VR1 (human) (% inhibition compared to 10 μM CP)” value is 30.72% and the “VR1 (human) (% stimulation compared to 10 μM CP)” value worked out at 5.04%.

As to `O=C1N=C(N2CCOCC2)SC1=CC=Cc1ccccc1` [Example 189, 2-morpholin-4-yl-5-(3-phenylallylidene)thiazol-4-one hydrobromide], the figures for the inhibition at 10 µM (in experiment [1]; at VR1 (human)) were 5.61% and 8.14%, respectively. In addition, the activation at 10 µM in experiment [1] is 6.64%; on VR1 (human), 11.2%. The EC50 was greater than 25 µM in experiment [1] (unit inferred) and greater than 50 µM on VR1 (human) (unit inferred).
